Patent US7671181B2, “Polynucleotides encoding coccidian parasite casein kinase I, a chemotherapeutic target for antiprotozoal agents” (Merck Sharp & Dohme Corp., priority 2004, dated 2010)

Assays:
EtPKG = biological target: T1, EtPKG (Eimeria tenella, UniProt Q8MMZ8); experiment: PKG assay with kemptide, native EtPKG; type: biochemical; settings: native enzyme from Eimeria oocysts; read-out: IC50, nativeEtPKG
T1 construct: Eimeria oocysts (EtCKIα and EtPKG); from tissue; host or cells: Eimeria oocysts
T1 sequence (Q8MMZ8 whole entry): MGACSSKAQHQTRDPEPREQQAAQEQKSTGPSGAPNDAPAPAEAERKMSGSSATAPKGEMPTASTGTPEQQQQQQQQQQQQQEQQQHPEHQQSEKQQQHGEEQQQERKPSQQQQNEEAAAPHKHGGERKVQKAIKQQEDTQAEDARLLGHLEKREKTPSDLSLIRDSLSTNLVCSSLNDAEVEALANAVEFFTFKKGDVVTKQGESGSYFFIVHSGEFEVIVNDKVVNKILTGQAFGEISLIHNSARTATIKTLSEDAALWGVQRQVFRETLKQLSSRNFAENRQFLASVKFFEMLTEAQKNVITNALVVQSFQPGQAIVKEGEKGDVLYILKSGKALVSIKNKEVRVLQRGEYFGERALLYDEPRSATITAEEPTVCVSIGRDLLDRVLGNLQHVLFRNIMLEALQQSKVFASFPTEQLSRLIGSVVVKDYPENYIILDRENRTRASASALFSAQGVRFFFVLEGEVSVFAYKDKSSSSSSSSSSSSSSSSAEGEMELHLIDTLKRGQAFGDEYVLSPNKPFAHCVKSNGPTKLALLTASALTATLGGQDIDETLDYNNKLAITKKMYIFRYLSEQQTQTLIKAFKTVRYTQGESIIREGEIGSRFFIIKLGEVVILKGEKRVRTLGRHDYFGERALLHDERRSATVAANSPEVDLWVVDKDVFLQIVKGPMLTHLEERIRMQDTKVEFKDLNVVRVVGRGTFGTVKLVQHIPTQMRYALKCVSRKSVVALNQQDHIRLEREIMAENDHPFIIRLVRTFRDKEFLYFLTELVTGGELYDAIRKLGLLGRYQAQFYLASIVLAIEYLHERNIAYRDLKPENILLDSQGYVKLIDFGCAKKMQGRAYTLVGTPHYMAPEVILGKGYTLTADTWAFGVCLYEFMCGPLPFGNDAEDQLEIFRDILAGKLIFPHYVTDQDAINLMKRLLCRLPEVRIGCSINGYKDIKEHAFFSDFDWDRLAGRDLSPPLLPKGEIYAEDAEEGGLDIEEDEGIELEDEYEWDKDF
Protocol: (§1) Protein kinase assays—Casein kinase activity was assayed essentially as described (Donald, R. G. K. et al., 2002, supra) using 96-well phosphocellulose plates (MAPH-NOB, Millipore; Billerica, Mass.) to capture ^33P-phosphorylated peptide or casein substrates. Kinase reactions were carried out in 40 μl volumes containing 25 mM Hepes, pH 7.4, 10 mM MgCl2, 20 mM β-glycerophosphate, 1 mM DTT, 250 μM substrate, 1 mg/mL BSA, 2 μM ATP, and 0.01 μM [γ-^33P]ATP (Perkin-Elmer, 3000 Ci/mmol). The reactions were initiated by the addition of enzyme and incubated at room temperature for 60 min. Casein (5% solution), partially dephosphorylated α-casein and β-casein were obtained from Sigma.
(§2) A variety of commercially available peptide substrates were evaluated. From Calbiochem (San Diego, Calif.): CKI substrate (RRKDLHDDEEDEAMSITA; SEQ ID NO:13); CKII substrate (RRADDSDDDDD; SEQ ID NO:14); Syntide-2 substrate (PLARTLSVAGLPGKK; SEQ ID NO:15); CaM kinase II substrate (281-291) (MHKNETVECLK; SEQ ID NO:16). From Promega: CKI substrate (DDDEESITRR; SEQ ID NO:17) and kemptide (LRRASLG; SEQ ID NO:18). From New England Biolabs (Beverly, Mass.): CKI phosphopeptide substrate (KRRRALS(p)VASLPGL; SEQ ID NO:19), and CKII substrate (RRREEETEEE; SEQ ID NO:20). PKG assays were performed with kemptide as substrate and 10 μM cGMP. CDPK was assayed with Syntide-2 substrate and in the presence of 100 μM CaCl2.

FLAGTgCDPK3 = FLAGTgCDPK3 (Toxoplasma gondii, UniProt A0A125YQG4); experiment: Protein kinase assay, FLAGTgCDPK3; type: biochemical; settings: read-out: IC50, FLAGTgCDPK3; recombinant enzyme, dose response titrations
FLAGTgCDPK3, sequence (A0A125YQG4 entry or part of it): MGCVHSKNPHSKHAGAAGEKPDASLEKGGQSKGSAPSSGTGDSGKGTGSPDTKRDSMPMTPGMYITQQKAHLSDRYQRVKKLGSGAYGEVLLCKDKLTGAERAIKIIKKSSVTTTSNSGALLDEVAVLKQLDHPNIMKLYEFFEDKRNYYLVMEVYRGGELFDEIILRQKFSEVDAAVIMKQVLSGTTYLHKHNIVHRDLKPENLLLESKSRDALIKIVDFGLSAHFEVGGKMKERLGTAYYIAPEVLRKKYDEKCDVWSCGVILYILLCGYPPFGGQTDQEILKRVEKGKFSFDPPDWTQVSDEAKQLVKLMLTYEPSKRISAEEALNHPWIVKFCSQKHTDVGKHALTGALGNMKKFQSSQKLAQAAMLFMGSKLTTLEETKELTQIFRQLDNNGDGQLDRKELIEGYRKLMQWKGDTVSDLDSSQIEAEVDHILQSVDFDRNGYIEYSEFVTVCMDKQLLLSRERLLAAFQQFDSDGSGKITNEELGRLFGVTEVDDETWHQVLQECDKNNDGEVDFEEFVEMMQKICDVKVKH
Protocol: as §1, §2

TgCDPK1 = biological target: T2, TgCDPK1 (Toxoplasma gondii, UniProt Q9BJF5); experiment: CDPK assay with Syntide-2, T. gondii CDPK1; type: biochemical
T2 construct: The TgCDPK1 open reading frame was amplified by PCR from a Toxoplasma cDNA library; made in house
T2 sequence (Q9BJF5 entry or part of it): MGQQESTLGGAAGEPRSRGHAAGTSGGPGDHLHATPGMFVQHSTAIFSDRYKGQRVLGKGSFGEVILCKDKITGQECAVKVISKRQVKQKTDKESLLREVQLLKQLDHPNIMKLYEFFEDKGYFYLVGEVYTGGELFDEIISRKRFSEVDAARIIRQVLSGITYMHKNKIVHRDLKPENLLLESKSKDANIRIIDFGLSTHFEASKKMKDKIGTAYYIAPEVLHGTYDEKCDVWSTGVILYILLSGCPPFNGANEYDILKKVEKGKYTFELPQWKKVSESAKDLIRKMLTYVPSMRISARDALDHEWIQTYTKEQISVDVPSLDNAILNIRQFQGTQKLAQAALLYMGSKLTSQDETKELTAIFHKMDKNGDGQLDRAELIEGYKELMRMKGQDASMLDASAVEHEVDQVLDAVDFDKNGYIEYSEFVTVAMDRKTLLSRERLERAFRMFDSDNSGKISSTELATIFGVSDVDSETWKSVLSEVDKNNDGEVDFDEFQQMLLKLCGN
Protocol: as §1, §2
Purification of recombinant TgCDPK1 and TgPKG—The TgCDPK1 open reading frame was amplified by PCR from a Toxoplasma cDNA library, using primers based on the published sequence (Kieschnick et al., 2001, supra): sense primer, […] (SEQ ID NO:44); and, antisense primer, […] (SEQ ID NO:45). A C-terminal FLAG epitope tag was appended to the TgCDPK1 open reading frame by an additional round of PCR amplification (KOD polymerase) and the resulting DNA fragment was sub-cloned into a tubulin promoter expression vector (Donald and Liberator, 2002, supra). […]

EtCKIα = EtCKIα (Eimeria tenella, UniProt Q6QNL9); experiment: Casein kinase assay, partially purified native EtCKIα; type: biochemical; settings: partially purified native enzyme from Eimeria oocysts; read-out: IC50, nativeEtCKIα
EtCKIα, sequence (Q6QNL9 whole entry): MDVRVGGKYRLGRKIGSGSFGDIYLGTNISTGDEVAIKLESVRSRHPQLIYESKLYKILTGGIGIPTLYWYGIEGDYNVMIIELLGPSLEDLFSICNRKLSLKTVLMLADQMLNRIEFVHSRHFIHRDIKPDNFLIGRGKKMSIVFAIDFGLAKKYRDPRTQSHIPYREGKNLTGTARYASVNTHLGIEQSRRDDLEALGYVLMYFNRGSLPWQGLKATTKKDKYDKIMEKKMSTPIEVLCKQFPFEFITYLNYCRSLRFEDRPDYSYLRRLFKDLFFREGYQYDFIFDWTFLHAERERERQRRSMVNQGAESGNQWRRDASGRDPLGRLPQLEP
Protocol: as §1, §2
Partial purification of native EtCKIα—The inability to stably express recombinant EtCKIα in T. gondii provided impetus to purify native enzyme from E. tenella parasites (slide 5). A lysate was prepared from 2×10^10 unsporulated oocysts using previously published procedures (Gurnett, A. M. et al., 2002, supra). The first two steps of the purification scheme used were essentially scaled-up from the method described for the purification of native TgCKIα. The lysate was subjected to preparative HiLoad Q anion-exchange chromatography and fractions eluted with a NaCl gradient (0-1 M NaCl). […]

TgCKIα = TgCKIα (Toxoplasma gondii, UniProt Q6QNM1); experiment: Casein kinase assay, TgCKIα (recombinant FLAGTgCKIα or partially purified native); type: biochemical; set-up: Km(app), native TgCKIα; other: substrate titration, 2 μM ATP; IC50, nativeTgCKIα; other: partially purified native enzyme from Toxoplasma tachyzoites; sensitivity of native TgCKIα phosphopeptide kinase activity (HiTrapQ fractions 5-9); other: 0.2 μM hymenialdisine or 1
TgCKIα, sequence (Q6QNM1 whole entry, looked up): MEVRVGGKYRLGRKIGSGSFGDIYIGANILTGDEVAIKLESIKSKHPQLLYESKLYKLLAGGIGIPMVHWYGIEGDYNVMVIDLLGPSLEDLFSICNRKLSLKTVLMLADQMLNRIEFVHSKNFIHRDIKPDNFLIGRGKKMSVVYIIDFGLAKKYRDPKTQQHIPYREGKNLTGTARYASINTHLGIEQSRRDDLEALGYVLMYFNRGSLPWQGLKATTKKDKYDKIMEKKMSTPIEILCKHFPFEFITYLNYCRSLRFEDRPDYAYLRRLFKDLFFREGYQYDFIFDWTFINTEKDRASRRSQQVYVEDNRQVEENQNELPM
Protocol: as §1, with “The reactions were initiated by the addition of enzyme and incubated at room temperature for 60 min.” left out
as §2
Purification of recombinant CKI enzymes—E. coli strain BL21 Origami™ (Novagen) was transformed with FLAGTgCKIα and FLAGTgCKIβ expression vectors, and colonies were expanded into 250 mL LB cultures grown at 37° C. Expression was induced with 1 mM IPTG once cultures had reached an OD600nm of 0.3-0.5, and the transformed bacteria were harvested 4-6 hours later. Cell pellets were resuspended in 15 mL of lysis buffer containing protease inhibitors and lysates prepared as described by the supplier (Bugbuster™ reagents, Novagen). The concentration of NaCl in the lysate was adjusted to 0.5 M, and 0.5 mL of FLAG-agarose beads were added (Sigma). The mixture was allowed to rock in a Nutator mixer (Becton-Dickinson; San Jose, Calif.) for 2 hours at 4° C. The slurry was then poured into an empty column and the matrix washed with 50 mL of wash buffer (50 mM Tris-HCl, pH 7.4, 0.5M NaCl, 10% glycerol, 1 mM DTT, 1 mM EDTA). […] Protein was measured with a micro-BCA reagent (Pierce) following a TCA-sodium deoxycholate step to remove residual FLAG peptide (Brown et al., 1989, Anal. Biochem. 180:136-139). […]
(§3) Preparations of FLAGTgCKIα and FLAGTgCKIβ were purified further on a SMART system FPLC 0.1 mL MonoQ anion exchange column (Pharmacia; New York, N.Y.) equilibrated in buffer A (50 mM Hepes, pH 7.4, 10% glycerol, 1 mM DTT) at room temperature. […] A linear salt gradient was applied (0-500 mM in 3 mL at 100 μl/min) and 100 μl fractions were collected and analyzed by SDS-PAGE and for CKI activity. […]

FLAGEtCDPK1 = FLAGEtCDPK1 (Eimeria tenella, UniProt Q3HNM4); experiment: Protein kinase assay, FLAGEtCDPK1; type: biochemical; settings: recombinant enzyme, dose response titrations
FLAGEtCDPK1, sequence (Q3HNM4 entry or part of it): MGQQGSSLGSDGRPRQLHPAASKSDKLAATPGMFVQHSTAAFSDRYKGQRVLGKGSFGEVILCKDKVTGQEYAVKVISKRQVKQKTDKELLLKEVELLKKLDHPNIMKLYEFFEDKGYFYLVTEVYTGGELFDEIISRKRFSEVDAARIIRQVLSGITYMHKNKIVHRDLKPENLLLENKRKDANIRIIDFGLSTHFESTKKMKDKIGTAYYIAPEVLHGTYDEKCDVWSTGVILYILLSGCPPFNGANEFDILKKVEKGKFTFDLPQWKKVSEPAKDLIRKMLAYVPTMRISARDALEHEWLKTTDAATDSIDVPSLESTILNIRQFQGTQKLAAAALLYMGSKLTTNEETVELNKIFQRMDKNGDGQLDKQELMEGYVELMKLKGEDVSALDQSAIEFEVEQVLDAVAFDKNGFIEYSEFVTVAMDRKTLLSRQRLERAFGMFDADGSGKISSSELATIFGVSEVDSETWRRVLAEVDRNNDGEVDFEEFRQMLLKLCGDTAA
Protocol: as §1, §2

T. gondii = experiment: Parasite growth inhibition, modified [3H]-uracil uptake assay in infected HFF cell monolayers; type: cell-based, Toxoplasma gondii; settings: Toxoplasma gondii, HFF
Description: Host cells and parasite cultures—RH strain or RH ΔHXGPRT strain tachyzoites of T. gondii were maintained by serial passage in confluent monolayers of human foreskin fibroblasts (“HFF”) as described (Roos, D. S. et al., 1994, Methods Cell Biol. 45:27-63). A modified [^3H]-uracil uptake assay (Pfefferkorn, E. R. and Pfefferkorn, L. C., 1977, J. Protozool. 24:449-453) adapted for use in 96-well scintillation plates (Cytostar-T, Amersham; Piscataway, N.J.) was used to measure parasite growth inhibition. Each well, previously seeded with HFF cells, was inoculated with T. gondii tachyzoites (2×10^4) in 200 μl of growth media containing 2 μCi [5,6]-^3H-uracil (Perkin-Elmer NEN; Boston, Mass.) and serially diluted compound. Following incubation at 37° C. for 36-48 hours, tritium-incorporation into host cell monolayers was directly counted in a microplate scintillation counter (MicroBeta, PerkinElmer-Wallac).
The only other CDK inhibitor with sub-μM activity against T. gondii was indirubin-3′-monoxime, which gave an IC50 value of 500 nM.

[1] = biological target: T3, Toxoplasma gondii calmodulin domain-like protein kinase 1 (FLAGTgCDPK1, recombinant) (Toxoplasma gondii, UniProt Q9BJF5); experiment: Kinase assay, inhibition of recombinant TgCDPK1; type: biochemical; settings: CDK inhibitor study (text to Table 2)
T3 construct: FLAG (C); made in house; host or cells: transgenic Toxoplasma gondii parasites
T3 sequence (Q9BJF5 entry or part of it): as the sequence (Q9BJF5 entry or part of it) above
Protocol: as §1
A variety of commercially available peptide substrates were evaluated. […]
Purification of recombinant TgCDPK1 and TgPKG—The TgCDPK1 open reading frame was amplified by PCR from a Toxoplasma cDNA library, using primers based on the published sequence (Kieschnick et al., 2001, supra): sense primer, […] […] A C-terminal FLAG epitope tag was appended to the TgCDPK1 open reading frame by an additional round of PCR amplification (KOD polymerase) and the resulting DNA fragment was sub-cloned into a tubulin promoter expression vector (Donald and Liberator, 2002, supra). […]

[2] = biological target: T4, Toxoplasma gondii casein kinase I alpha (TgCKIα), recombinant FLAG-tagged or native, SEQ ID NO:4 (Toxoplasma gondii, UniProt Q6QNM1); experiment: Casein kinase assay, inhibition of TgCKIα (recombinant or native forms); type: biochemical
T4 construct: same protein
T4 sequence (Q6QNM1 whole entry): as the sequence (Q6QNM1 whole entry, looked up) above
Protocol: as §1
A variety of commercially available peptide substrates were evaluated. From Calbiochem (San Diego, Calif.): CKI substrate (RRKDLHDDEEDEAMSITA; SEQ ID NO:13); CKII substrate (RRADDSDDDDD; SEQ ID NO:14); Syntide-2 substrate (PLARTLSVAGLPGKK; SEQ ID NO:15); CaM kinase II substrate (281-291) (MHKNETVECLK; SEQ ID NO:16). […]
as §3

Structure (SMILES)	IC50 (EtPKG) [nM]	IC50 (FLAGTgCDPK3) [nM]	IC50 (TgCDPK1) [nM]	IC50 (EtCKIα) [nM]	IC50 (TgCKIα) [nM]	IC50 (FLAGEtCDPK1) [nM]	IC50 (T. gondii) [nM]	IC50 [1] [nM]	IC50 [2] [nM]
CN1CCC(c2ccn3c(-c4ccnc(N)n4)c(-c4ccc(F)cc4)nc3c2)CC1 [Compound 39, 4[2-(4-Fluorophenyl)1-7-(1-methylpiperidin-4-yl)imidazo[1,2-a]pyridin-3-yl]pyrimidin-2-amine]	0.5	> 10000	0.5	69	15	126			
O=C1Nc2ccccc2/C1=C1/Nc2ccccc2/C1=N\O [indirubin-3′-monoxime]							500	175	172
